Values joined by “and” are separate entries in the source; they are usually repeats but may differ in a detail not shown here. Equal values may be shown once.
Test: Anticancer human tumor 997537-175-T-J1-PDC patient-derived colon adenocarcinoma cell line growth inhibition [POLQ]
Conditions: 997537-175-T-J1-PDC complex spheroid viability, combination with POLQ inhibitors; for viability, T/C: stronger effect = lower value
Procedure: Multicellular complex tumor spheroid response to Polymerase (POL) inhibitors (novobiocin, ART-558, RP6685) in combination with a variety of drugs and investigational agents in selected tumor cell lines
The POL inhibitors (novobiocin, ART-558, and RP6685) were evaluated both individually and in combination with standard of care and investigational anticancer small molecules within a complex spheroid model of solid tumors. . Complex spheroids include a stromal component modeled by human endothelial cells (HUVEC) and fibroblasts modeled by human mesenchymal stem cells (MSCs). The concentration ranges selected for each drug and investigational agent were based upon clinically achievable concentrations if the clinical Cmax of the agent was known.
Compounds. The drugs and investigational agents: novobiocin (NSC847541), ART-558 (NSC835418), RP-6685 (NSC848927), peposertib (NSC802822), ceralasertib (NSC780249), elimusertib (NSC800525), camonsertib (NSC841442), AZD-1390 (NSC803789), olaparib (NSC753686), talazoparib (NSC767125), rucaparib (NSC756644), sotorasib (NSC818433), MRTX-1133 (NSC836407), SN-38 (NSC673596), topotecan (NSC609699), epotoside (NSC141540), doxorubicin (NSC123127), gemcitabine (NSC613327), 5-fluorouracil (NSC19893), paclitaxel (NSC125973), vemurafenib (NSC761431), MSA-2 (NSC828583), SN-011 (NSC837082), adavosertib (NSC754352), prexasertib (NSC758257), carboplatin (NSC241240) and oxaliplatin (NSC266046), were obtained from the National Cancer Institute (NCI) Developmental Therapeutics Program Chemical Repository (21). The FDA-approved anticancer drug set is available from the Developmental Therapeutics Program at https://dtp.cancer.gov/organization/dscb/obtaining/. […] The stock solutions were prepared in dimethyl sulfoxide (DMSO, Sigma-Aldrich, St. Louis, MO, cat. D2650), except for the platinum compounds which were prepared in saline (Quality Biological, Gaithersburg, MD, cat. 114-055-101), at 800-fold the tested concentration and stored at -70 degrees C prior to their use. All drugs and investigational agents were tested over a range starting from a high concentration at or near the clinical Cmax and decreasing in half-log increments. If the clinical Cmax for an agent had not been determined, the highest concentration tested was 10 microM, except for SN-38, which was tested at a high concentration of 1 microM.
Cell Culture. All cells were maintained in an incubator at 37 degrees C and 5% CO2 with 95% humidity. The PDC lines were cultured according to standard operating procedures established by the NCI PDMR (https://pdmr.cancer.gov). Table 3 of the manuscript, lists the cell lines along with the number of the three cell types plated to form the mct-spheroids and media for tumor cell growth. After thawing, all PDC lines, except 997537-175-T-J1-PDC and 415267-285-R-J2-PDC, were cultured in Matrigel-coated flasks prepared with a working solution of 1X Ham's F-12 nutrient mix, without supplementation (Thermo Fisher Scientific, cat. 11765054), 100 U/mL penicillin-streptomycin (Thermo Fisher Scientific, cat. 15140122), and 2.5% Matrigel (Corning Inc., Corning, NY, cat. 354248) for the first three passages. The two PDC lines 997537-175-T-J1-PDC and 415267-285-R-J2-PDC were cultured on uncoated flasks. The 857933-349-R-J2-PDC line was cultured in 6C/Colon 1B media containing advanced DMEM/F-12 (Thermo Fisher Scientific, cat. 12634028), 10 mM HEPES (Thermo Fisher Scientific, cat. 15630080), 1X GlutaMAX supplement (Thermo Fisher Scientific, cat. 35050061), 0.1 mg/mL primocin (InvivoGen, San Diego, CA, cat. ant-pm-2), 10% defined fetal bovine serum, heat inactivated (HyClone Laboratories Inc., Logan, UT, cat. SH30070.03HI), 50% L-WRN conditioned media (ATCC, cat. CRL-3276), 1.25 mM N-Acetyl-L-cysteine (Sigma-Aldrich, cat. A9165), 10 mM nicotinamide (Sigma-Aldrich, cat. N0636), 1X B-27 supplement (Thermo Fisher Scientific, cat. 17504044), 1X N-2 supplement (Thermo Fisher Scientific, cat. […]
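Also: luminescence signal used as a surrogate for viable cells; spheroids exposed to drugs for seven days before readout.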

CC1COCCN1c1cc(-c2ccnn2C)c2ccnc(-c3ccn[nH]3)c2n1 (centres undefined)
viability, T/C (compound 0.0316 µM): 94.7% and 97.9% and 86.9% | viability, T/C (compound 0.1 µM): 62% and 63.5% and 79.7% | viability, T/C (compound 0.316 µM): 64.5% and 49% and 65.9% | viability, T/C (compound 1 µM): 44.2% and 44.4% and 50.7% | viability, T/C (compound 3.16 µM): 68% and 32.4% and 51.1% | viability, T/C (compound 10 µM): 60.6% and 53.7% and 53.6%

CC(=O)O[C@H]1C(=O)[C@@]2(C)[C@H]([C@H](OC(=O)c3ccccc3)[C@]3(O)C[C@H](OC(=O)[C@H](O)[C@@H](NC(=O)c4ccccc4)c4ccccc4)C(C)=C1C3(C)C)[C@]1(OC(C)=O)CO[C@@H]1C[C@@H]2O
viability, T/C (compound 0.00949 µM): 55.5% and 66.9% and 49.9% | viability, T/C (compound 0.03 µM): 33.4% and 42.3% and 41.3% | viability, T/C (compound 0.0949 µM): 22.8% and 35.5% and 38.7% | viability, T/C (compound 0.3 µM): 32.1% and 41.2% and 22.7% | viability, T/C (compound 0.949 µM): 32% and 28.6% and 22% | viability, T/C (compound 3 µM): 30.9% and 40.5% and 33.2% | IC50 (curve of compound): 0.0125 µM and 0.0207 µM and < 0.00949 µM

C=CC(=O)N1CCN(c2nc(=O)n(-c3c(C)ccnc3C(C)C)c3nc(-c4c(O)cccc4F)c(F)cc23)C(C)C1 (centres undefined)
viability, T/C (compound 0.0316 µM): 88.3% and 103% and 94.8% | viability, T/C (compound 0.1 µM): 92.3% and 93.2% and 91.2% | viability, T/C (compound 0.316 µM): 92.7% and 102% and 101% | viability, T/C (compound 1 µM): 99.6% and 91.8% and 112% | viability, T/C (compound 3.16 µM): 103% (2×) and 104% | viability, T/C (compound 10 µM): 101% and 89.6% and 87.3% | IC50 (curve of compound): > 10 µM

COC1C(OC(N)=O)C(O)C(Oc2ccc3c(O)c(NC(=O)c4ccc(O)c(CC=C(C)C)c4)c(=O)oc3c2C)OC1(C)C (centres undefined)
viability, T/C (compound 0.1 µM): 97.2% [middle of 13 runs] | viability, T/C (compound 0.316 µM): 97.4% [middle of 13 runs] | viability, T/C (compound 1 µM): 95.6% [middle of 13 runs] | IC50 (compound alone, run of 11/27/2023): > 10 µM

Cn1ncnc1[C@H]1c2n[nH]c(=O)c3cc(F)cc(c23)N[C@@H]1c1ccc(F)cc1
viability, T/C (compound 0.000316 µM): 93.6% and 104% and 95.7% | viability, T/C (compound 0.001 µM): 114% and 96.4% and 80.4% | viability, T/C (compound 0.00316 µM): 80.6% and 115% and 106% | viability, T/C (compound 0.01 µM): 110% and 98.3% and 88.3% | viability, T/C (compound 0.0316 µM): 104% and 106% and 100% | viability, T/C (compound 0.1 µM): 94.7% and 98.2% and 90% | IC50 (curve of compound): > 0.1 µM

CCCS(=O)(=O)Nc1ccc(F)c(C(=O)c2c[nH]c3ncc(-c4ccc(Cl)cc4)cc23)c1F
viability, T/C (compound 0.0316 µM): 97.4% and 90.7% and 82.4% | viability, T/C (compound 0.1 µM): 82.1% and 86.5% and 97.7% | viability, T/C (compound 0.316 µM): 88.1% and 82.6% and 89.7% | viability, T/C (compound 1 µM): 86.5% and 84.5% and 82.5% | viability, T/C (compound 3.16 µM): 65.1% and 72.9% and 76% | viability, T/C (compound 10 µM): 26.5% and 42% and 22.9% | IC50 (curve of compound): 4.97 µM and 7.51 µM and 5.5 µM

CC(C)n1c(=O)n(C)c2cnc3cc(F)c(-c4ccc(OCCCN5CCCCC5)nc4)cc3c21
viability, T/C (compound 0.0316 µM): 90.1% and 93% and 37.9% | viability, T/C (compound 0.1 µM): 103% and 96% and 38.9% | viability, T/C (compound 0.316 µM): 100% and 83.5% and 34.2% | viability, T/C (compound 1 µM): 97.9% and 102% and 32.9% | viability, T/C (compound 3.16 µM): 85.7% and 92.1% and 37.8% | viability, T/C (compound 10 µM): 73.3% and 87.2% and 43.2%

From PubChem BioAssay AID1963825 (Molecular Pharmacology Branch, DTP, NCI, 2024)
